ChEMBL document CHEMBL4476878, “Galactokinase inhibitors” (2013)
The source made the active and inactive calls.

How the values were obtained:
[1] = target: Galactokinase (Homo sapiens) (UniProt P51570); assay: Inhibition of His6-tagged recombinant human GALK expressed in Escherichia coli HMS174 (DE3) incubated for 60 mins using galactose and ATP by Kinase-Glo reagent based assay
[2] = tested on: Geobacillus stearothermophilus; assay: Inhibition of Bacillus stearothermophilus glucokinase
[3] = tested on: Saccharomyces cerevisiae; assay: Inhibition of Saccharomyces cerevisiae hexokinase
[4] = target: Galactokinase (Homo sapiens) (UniProt P51570); assay: Inhibition of His6-tagged recombinant human GALK expressed in Escherichia coli HMS174 (DE3) by pyruvate kinase/lactate dehydrogenase-coupled assay
[5] = target: T1, 4-diphosphocytidyl-2-C-methyl-D-erythritol kinase (Escherichia coli (strain K12)) (UniProt P62615); assay: Inhibition of purified Escherichia coli CDP-ME kinase IspE expressed in Escherichia coli HMS174 at 10 to 50 uM by luciferase-luciferin based luminescence-based assay
T1 sequence (whole entry): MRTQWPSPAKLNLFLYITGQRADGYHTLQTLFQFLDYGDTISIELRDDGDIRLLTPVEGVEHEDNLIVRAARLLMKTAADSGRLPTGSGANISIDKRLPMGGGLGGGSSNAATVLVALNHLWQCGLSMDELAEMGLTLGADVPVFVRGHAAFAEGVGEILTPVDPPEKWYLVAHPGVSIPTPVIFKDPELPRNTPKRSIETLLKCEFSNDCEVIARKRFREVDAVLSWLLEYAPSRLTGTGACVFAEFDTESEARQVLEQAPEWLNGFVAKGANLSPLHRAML

[6] = target: Galactokinase (Homo sapiens) (UniProt P51570); assay: Inhibition of His6-tagged recombinant human GALK expressed in Escherichia coli HMS174 (DE3) at 5 to 15 uM incubated for 60 mins using galactose and ATP by Kinase-Glo reagent based assay

Measured: inhibition

Sequence of Galactokinase (Homo sapiens) (P51570 whole entry): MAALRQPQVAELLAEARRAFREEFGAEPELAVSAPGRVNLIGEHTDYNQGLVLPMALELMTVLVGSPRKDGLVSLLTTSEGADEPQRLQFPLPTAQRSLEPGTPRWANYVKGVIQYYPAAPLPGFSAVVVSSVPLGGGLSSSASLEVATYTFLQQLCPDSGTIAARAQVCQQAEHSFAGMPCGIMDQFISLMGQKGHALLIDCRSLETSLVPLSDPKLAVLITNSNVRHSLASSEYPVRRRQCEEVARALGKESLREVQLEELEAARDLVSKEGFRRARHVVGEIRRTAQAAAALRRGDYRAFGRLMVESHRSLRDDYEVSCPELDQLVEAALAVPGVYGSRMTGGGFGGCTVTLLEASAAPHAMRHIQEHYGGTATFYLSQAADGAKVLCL

O=C1C(NS(=O)(=O)c2ccccc2)=C/C(=N\S(=O)(=O)c2ccc(F)cc2)c2ccccc21
active: [1] | [2] | [3]

Cc1ccc(CSc2nc(C(=O)O)ccc2C#N)cc1
active: [1] | [2] | [3]

N#Cc1c(-c2ccc(Cl)cc2)nc(SCc2ccccc2)[nH]c1=S
active: [1] | [2] | [3]

c1ccc(-c2cnc3nonc3n2)cc1
active: [1] | [2] | [3]

CC1(c2ccccc2)CC(C)(C)N2C(=O)/C(=C3/SC(=O)NC3=O)c3cccc1c32 (stereo not drawn)
active: [4] | [1] | [2] | [3]

O=C1Nc2ccc(I)cc2/C1=C/c1cc(Br)c(O)c(Br)c1
active: [1] | [2] | [3]

COC1=C(N)C(=O)c2nc(-c3nc(C(=O)O)c(C)c(-c4ccc(OC)c(OC)c4O)c3N)ccc2C1=O
active: [4] | [1] | [2] | [3]

Cc1cc2c(C(C)C)c(O)c(O)c(C=O)c2c(O)c1-c1c(C)cc2c(C(C)C)c(O)c(O)c(C=O)c2c1O
active: [5]

Cc1cccc(OCCOc2ccc(Br)cc2/C=C2\SC(=S)NC2=O)c1
active: [1] | [2] | [3]

N#CC1=C(SCc2ccccc2)SC(c2ccc(C(=O)O)cc2)NC1=O (stereo not drawn)
active: [1] | [2] | [3]

N#Cc1ccc(CSc2nc(-c3cccs3)c3c(c2C(=O)O)CCCC3)cc1
active: [1] | [2] | [3]

COc1cc(/C=C2/SC(=S)NC2=O)ccc1OC(=O)c1cccc(C)c1
active: [1] | [2] | [3]

CCOc1cccc(NC(=O)C2CC(=O)N(/N=C(\C)c3ccc(Br)s3)C(=N)S2)c1 (stereo not drawn)
active: [1] | [2] | [3]

Nc1ncnc2c1ncn2[C@@H]1O[C@H](COP(=O)(O)OP(=O)(O)OP(O)(O)=S)[C@@H](O)[C@H]1O
active: [6]

Oc1c(Cl)cc(Cl)cc1Sc1cc(Cl)cc(Cl)c1O
active: [1] | [2] | [3]

CC1=NN(c2cccc(C(=O)O)c2)C(=O)/C1=C/c1ccc(-c2cccc(Cl)c2C)o1
active: [1] | [2] | [3]

Oc1c(Cl)cc(Cl)c(Cl)c1Cc1c(O)c(Cl)cc(Cl)c1Cl
active: [4] | [1] | [2] | [3]

O=C(NC1(O)C(=O)c2ccccc2C1=O)c1cnn(-c2ccccc2)c1C(F)(F)F
active: [1] | [2] | [3]

O=C1OC(c2ccccc2)OC(=O)C1=C/C=C/c1ccccc1 (stereo not drawn)
active: [1] | [2] | [3]

COC(=O)CSC1=C(C#N)C(=O)NC(c2ccccc2O)S1 (stereo not drawn)
active: [1] | [2] | [3]

Cc1c(O)c(C(=O)CC(C)C)c2oc3c(C(=O)CC(C)C)c(O)c(C)c(O)c3c2c1O
active: [1] | [2] | [3]

CC1(C)CCC2=C(O1)c1ccccc1C(=O)C2=O
active: [1] | [2] | [3]

O=C1OC2(c3ccccc31)c1cc(I)c(O)c(I)c1Oc1c2cc(I)c(O)c1I
active: [1] | [2] | [3]

CCSC1=C(C#N)C(=O)NC(/C=C/c2ccccc2)S1 (stereo not drawn)
active: [1] | [2] | [3]

CC(C)OC1(O)C(=O)c2ccccc2C(=O)C1(O)OC(C)C (stereo not drawn)
active: [1] | [2] | [3]

O=C1OC2(CCCC2)OC(=O)C1=Cc1ccc(OCc2ccccc2)cc1
active: [1] | [2] | [3]

N#CC1=C(SCc2ccccc2)SC(c2ccccc2O)NC1=O (stereo not drawn)
active: [1] | [2] | [3]

CC(C)(C)C(=O)Nc1ccc2c(c1)C(=O)C(=O)c1ccccc1-2
active: [4] | [1] | [2] | [3]

Cc1c(N=c2c(=O)c3ccccc3c2=O)c(=O)n(-c2ccccc2)n1C
active: [1] | [2] | [3]

O=C1NC(=S)N(c2cccc3ccccc23)C(=O)/C1=C/c1c[nH]c2ccccc12
active: [1] | [2] | [3]

O=C1O[C@H](c2ccccc2)[C@H](c2ccccc2)N2[C@H]1[C@@H](C(=O)O)[C@]1(C(=O)Nc3ccc(C#CC4(O)CCCCCC4)cc31)[C@H]2c1ccc(OCCO)cc1
active: [1] | [2] | [3]

Cn1c(=S)[nH]c2sc3c(c2c1=O)CCC(C(C)(C)C)C3 (stereo not drawn)
active: [1] | [2] | [3]

CC1=NOC(=O)/C1=C\c1ccc(-c2ccccc2)o1
active: [1] | [2] | [3]

CC(C)(C)c1cc(/C=C2/SC(=S)NC2=O)cc(C(C)(C)C)c1O
active: [1] | [2] | [3]

O=C1NC(=O)N(c2ccccc2)C(=O)/C1=C/c1c2ccccc2cc2ccccc12
active: [1] | [2] | [3]

O=C1C=C2N(c3ccccc3)CCOC2(O)c2ccccc21 (stereo not drawn)
active: [1] | [2] | [3]
